Data: patent publication US8293772B2, “Triazole substituted aminobenzophenone compounds” (Leo Pharma A/S, priority 2004, dated 2012)

Experiments:
IL-1β = experiment: Inhibition of IL-1β secretion in LPS stimulated peripheral blood mononuclear cells; format: cell-based; conditions: LPS stimulated human PBMC, 18 hours, ELISA; read-out: The median inhibition concentration (IC50, nM) of IL-1β
Description: (§1) To study the effect of compounds of the present invention in vitro, the inhibition of IL-1β and TNF-α secretion was determined using the following procedure:
(§2) Cytokine production was measured in the media from lipopolysaccharide (LPS) stimulated peripheral blood mononuclear cells. The mononuclear cells were isolated from human peripheral blood by Lymphoprep® (Nycomed, Norway) fractionation and suspended in RPMI 1640 (growth medium) with foetal calf serum (FCS, 2%), at a concentration of 5×10^5 cells/ml. The cells were incubated in 24-well tissue culture plates in 1 ml aliquots. Test compounds were dissolved in dimethylsulfoxide (DMSO, 10 mM) and were diluted with the medium. Compounds were added to the cells for 30 minutes, then LPS ([…] final concentration) was added. The plates were incubated for 18 hours, and the concentration of IL-1β and TNF-α in the medium was determined by enzyme-linked immunosorbent assays. The median inhibitory concentrations (IC50) of the compounds were calculated.

TNF-α [1] = experiment: Inhibition of TNF-α secretion in LPS stimulated peripheral blood mononuclear cells; format: cell-based; conditions: LPS stimulated human PBMC, 18 hours, ELISA; read-out: The median inhibition concentration (IC50, nM) of TNF-α
Description: as §1, §2

p38α MAP kinase = molecular target: T1, p38α MAP kinase (Homo sapiens, UniProt Q16539); experiment: p38α MAP kinase assay (immunoprecipitated FLAG-p38α from COS-1 cells, GST-ATF-2 substrate); format: biochemical
T1 construct: made in house; host or cells: COS-1 cells (transient co-transfection), immunoprecipitated with anti-FLAG M2 on Protein G Sepharose
T1 sequence (Q16539 whole entry): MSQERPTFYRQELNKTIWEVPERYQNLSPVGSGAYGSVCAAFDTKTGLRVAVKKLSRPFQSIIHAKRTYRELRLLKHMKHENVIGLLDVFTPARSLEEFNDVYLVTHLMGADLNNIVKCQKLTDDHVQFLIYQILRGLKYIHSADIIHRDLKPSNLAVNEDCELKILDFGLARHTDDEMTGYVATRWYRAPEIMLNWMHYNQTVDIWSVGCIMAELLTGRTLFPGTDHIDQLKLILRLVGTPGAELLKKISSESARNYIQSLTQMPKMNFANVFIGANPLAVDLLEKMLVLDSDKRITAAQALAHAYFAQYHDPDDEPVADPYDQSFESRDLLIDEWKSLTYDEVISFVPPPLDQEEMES
Description: COS-1 cells (derived from African green monkey kidney fibroblast-like cell containing wild-type T antigen under control of the SV40 promotor) were obtained from ATCC (ATCC no. CRL-1650) and grown in growth medium (DMEM without phenolred, 10% FCS, 2 mM L-glutamine, 100U penicillin and 100 μg streptomycin/ml) at 37° C. with 5% CO2. The cells were passaged twice a week by trypsination (0.25% trypsin, 1 mM EDTA in PBS) and were split 1:10. The medium was changed every second or third day. The cell line was regularly tested with the Mycoplasma PCR Primer Set (Stratagene) and found to be free of Mycoplasma. Tissue culture media, FCS, L-glutamine and penicillin and streptomycin are from Bribco BRL, Gaithersburg, Md., USA.
On day one COS-1 cells were seeded in 143 cm^2 petridish with a density of 2×10^4 celler/cm^2 in growth medium. At day 2 the cells were co-transfected with 5 μg (total) of experimental plasmid DNA, expressing the FLAG-p38α and FLAG-MKK6(EE). The plasmids were introduced into the COS-1 cells in serum-free medium using DOTAP™ (Boehringer-Mannheim, Mannheim, Germany). Plasmid DNA was prepared and purified using the QIAGEN EndoToxin-free Maxiprep-500 kit (Hilden, Germany). Briefly, DNA and DOTAP™ were mixed for exactly 15 min. at 37° C. in the CO2 incubator. […]

TNF-α [2] = experiment: In vivo screening model of LPS induced TNF-α response in mice; conditions: Mus musculus, po, 1 mg/kg p.o., 1 hour prior to LPS, plasma TNF-α 80-90 minutes after LPS, read-out: In vivo inhibition of LPS induced TNF-α production (in %)
Description: In Vivo Screening Model of LPS Induced TNF-α Response in Mice
To study the effect of compounds of the present invention in vivo, an in vivo screening model of LPS induced TNF-α response in mice was set up as follows: Groups of 6 mice (C3H/HeN, female, about 8 weeks (20 g), Bomholtgaard) were dosed with test compounds in suspension vehicle 1 hour prior to LPS administration (LPS from E. coli 055:B5, L-4005, Sigma). At time 0, the mice were dosed ip with 1.0 mg LPS/kg. After anesthetization with Hypnorm/Dormicum, the mice were bled from the periorbital venous plexus 80-90 minutes after LPS administration. The blood samples were sampled in EDTA stabilised tubes and centrifuged at 4000 rpm for 10 minutes at 4° C. The plasma level of TNF-α was analysed by ELISA. Compound 156 of WO 98/32730 was used as reference compound. The plasma level of TNF-α was determined using a sandwich ELISA. Microtiter plates were coated with a monoclonal antibody against mouse TNF-α, washed and blocked with a casein buffer. Samples of mouse TNF-α recombinant standards were added to the wells of the microtiter plates and incubated. All standards were tested in triplicate, all plasma samples in single. After sample and standard incubation, the plates were washed and incubated with biotinylated polyclonal secondary antibody against mouse TNF-α and washed. Enzyme conjugate was added to all wells and incubated. Substrate was added and the enzyme/substrate reaction stopped after 15 minutes at room temperature with 1M H2SO4. The colour development (OD) was measured at 450 nm on an ELISA reader and the background OD at 620 nm was subtracted. […] The results of the tested compounds are indicated as a percentage inhibition compared to an LPS treated control group. Compounds were tested at 1 mg/kg (p.o.). The Mann-Whitney test was used to compare drug treated groups to the LPS treated control group (p<0.05).

TNF-α [3] = experiment: as above; conditions: Mus musculus, ip, tested at 10 mg/kg i.p., plasma TNF-α 80-90 minutes after LPS, read-out: In vivo inhibition of LPS induced TNF-α production (in %)

SMILES | IC50 (IL-1β) [nM] | IC50 (TNF-α [1]) [nM] | p38 MAP kinase inhibition (p38α MAP kinase) | inhibition in vivo at 1 mg/kg (TNF-α [2]) [%] | inhibition in vivo at 10 mg/kg (TNF-α [3]) [%]
Cc1ccc(-c2cn(CCO)nn2)cc1C(=O)c1ccc(Nc2ccc(F)cc2F)cc1Cl [Compound 102, [2-Chloro-4-(2,4-difluoro-phenylamino)-phenyl]-{5-[1-(2-hydroxy-ethyl)-1H-[1,2,3]triazol-4-yl]-2-methyl-phenyl}-methanone] | 1.3 | 0.5 | potent p38 MAP kinase inhibitor | 94 | 
CCNC(=O)Cn1cc(-c2ccc(C)c(C(=O)c3ccc(Nc4ccc(F)cc4F)cc3Cl)c2)nn1 [Compound 112, 2-(4-{3-[2-Chloro-4-(2,4-difluoro-phenylamino)-benzoyl]-4-methyl-phenyl}-[1,2,3]triazol-1-yl)-N-ethyl-acetamide] | 5 | 0.3 |  | 49 | 
Cc1ccc(-c2cn(CC(=O)N3CCOCC3)nn2)cc1C(=O)c1ccc(Nc2ccc(F)cc2F)cc1Cl [Compound 115, 2-(4-{3-[2-Chloro-4-(2,4-difluoro-phenylamino)-benzoyl]-4-methyl-phenyl}-[1,2,3]triazol-1-yl)-1-morpholin-4-yl-ethanone] | 0.5 | 0.5 |  | 70 | 
Cc1ccc(-c2cn(CCO)nn2)cc1C(=O)c1ccc(Nc2ccc(F)cc2)cc1Cl [Compound 122, [2-Chloro-4-(4-fluoro-phenylamino)-phenyl]-{5-[1-(2-hydroxy-ethyl)-1H-[1,2,3]triazol-4-yl]-2-methyl-phenyl}-methanone] | 1.4 | 0.9 |  | 96 | 
Cc1ccc(-c2cn(CC(N)=O)nn2)cc1C(=O)c1ccc(Nc2ccc(F)cc2)cc1Cl [Compound 125, 2-(4-{3-[2-Chloro-4-(4-fluoro-phenylamino)-benzoyl]-4-methyl-phenyl}-[1,2,3]triazol-1-yl)-acetamide] | 1 | 0.5 |  | 96 | 
Cc1ccc(-n2cc(CCO)nn2)cc1C(=O)c1ccc(Nc2ccc(F)cc2)cc1Cl [Compound 127, [2-Chloro-4-(4-fluoro-phenylamino)-phenyl]-{5-[4-(2-hydroxy-ethyl)-[1,2,3]triazol-1-yl]-2-methyl-phenyl}-methanone] | 0.9 | 0.7 |  | 94 | 
Cc1ccccc1C(=O)c1ccc(Nc2ccccc2N)cc1Cl [Ref. comp. a, 4-(2-aminophenylamino)-2-chloro-2′-methylbenzophenone] |  |  |  |  | 23

Now from value to compound, other results behind:

IC50 (IL-1β) [nM] | IC50 (TNF-α [1]) [nM] | p38 MAP kinase inhibition (p38α MAP kinase) | SMILES | inhibition in vivo at 1 mg/kg (TNF-α [2]) [%] | inhibition in vivo at 10 mg/kg (TNF-α [3]) [%]
1.9 | 1.2 |  | Cc1ccc(-c2cn(CCNS(C)(=O)=O)nn2)cc1C(=O)c1ccc(Nc2ccc(F)cc2F)cc1Cl [Compound 109, N-[2-(4-{3-[2-Chloro-4-(2,4-difluoro-phenylamino)-benzoyl]-4-methyl-phenyl}-[1,2,3]triazol-1-yl)-ethyl]-methanesulfonamide] | 79 | 
0.4 | 0.3 |  | Cc1ccc(-c2cn(CC(=O)N3CCCC3)nn2)cc1C(=O)c1ccc(Nc2ccc(F)cc2F)cc1Cl [Compound 114, 2-(4-{3-[2-Chloro-4-(2,4-difluoro-phenylamino)-benzoyl]-4-methyl-phenyl}-[1,2,3]triazol-1-yl)-1-pyrrolidin-1-yl-ethanone] | 86 | 
0.8 | 0.5 |  | Cc1ccc(-c2cn(CC(O)CO)nn2)cc1C(=O)c1ccc(Nc2ccc(F)cc2)cc1Cl (centres unmarked) [Compound 124, [2-Chloro-4-(4-fluoro-phenylamino)-phenyl]-{5-[1-(2,3-dihydroxy-propyl)-1H-[1,2,3]triazol-4-yl]-2-methyl-phenyl}-methanone] | 77 | 
2.5 | 1.8 |  | Cc1ccc(-n2cc(C(C)(C)N)nn2)cc1C(=O)c1ccc(Nc2ccc(F)cc2F)cc1Cl [Compound 131, {5-[4-(1-Amino-1-methyl-ethyl)-[1,2,3]triazol-1-yl]-2-methyl-phenyl}-[2-chloro-4-(2,4-difluoro-phenylamino)-phenyl]-methanone] | 80 | 
